Source: PubChem BioAssay (NCI)
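GI50 = concentration required for 50% inhibition of growth. The concentration for full growth arrest is given as TGI.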

Tests used:
Assay in all cases: DTP human tumour cell line panel, 384-well format
[1] = test system: HL-60(TB) leukemia
[2] = test system: IGROV1 ovarian
[3] = test system: SF-268 CNS
[4] = test system: UO-31 renal
[5] = test system: OVCAR-4 ovarian
[6] = test system: RPMI-8226 leukemia
[7] = test system: PC-3 prostate
[8] = test system: COLO 205 colon
[9] = test system: A498 renal
[10] = test system: LOX IMVI melanoma
[11] = test system: SF-539 CNS
[12] = test system: UACC-62 melanoma
[13] = test system: EKVX NSCLC
[14] = test system: NCI-H460 NSCLC
[15] = test system: MCF7 breast
[16] = test system: MDA-MB-435 melanoma
[17] = test system: HT29 colon
[18] = test system: SR leukemia
[19] = test system: NCI/ADR-RES ovarian
[20] = test system: SNB-75 CNS
[21] = test system: U251 glioblastoma
[22] = test system: DU-145 prostate
[23] = test system: MALME-3M melanoma
[24] = test system: MDA-MB-468 breast
[25] = test system: NCI-H322M lung
[26] = test system: 786-0 renal
[27] = test system: SN12C renal
[28] = test system: OVCAR-8 ovarian
[29] = test system: SNB-19 CNS
[30] = test system: HOP-92 NSCLC
[31] = test system: SF-295 CNS
[32] = test system: UACC-257 melanoma
[33] = test system: CAKI-1 renal
[34] = test system: A549 NSCLC
[35] = test system: M14 melanoma
[36] = test system: ACHN renal
[37] = test system: OVCAR-3 ovarian
[38] = test system: HCT-15 colon
[39] = test system: SK-MEL-5 melanoma
[40] = test system: HS 578T breast
[41] = test system: TK-10 renal
[42] = test system: SK-MEL-28 melanoma
[43] = test system: NCI-H23 lung
[44] = test system: T-47D breast
[45] = test system: NCI-H226 lung
[46] = test system: BT-549 breast
[47] = test system: HCC-2998 colon
[48] = test system: MOLT-4 leukemia
[49] = test system: RXF 393 renal
[50] = test system: SW-620 colon
[51] = test system: CCRF-CEM leukemia
[52] = test system: OVCAR-5 ovarian
[53] = test system: K-562 leukemia
[54] = test system: HOP-62 NSCLC
[55] = test system: MDA-MB-231 breast
[56] = test system: NCI-H522 lung
[57] = test system: SK-OV-3 ovarian
[58] = test system: KM12 colon

Which GI50 [1] does the source give for NC(N)=Nc1ccc(-n2nc(C(F)(F)F)cc2-c2ccc3c(ccc4ccccc43)c2)cc1 here?
Its GI50 is 838 nM.

And the TGI [1]?
The TGI was 2070 nM.

What about the GI50 [2] of the same compound?
Its GI50 is 1820 nM.

What about the TGI [2] of the same compound?
Its TGI is 3230 nM.

And the GI50 [3]?
Its GI50 is 1830 nM.

And the TGI [3]?
Its TGI is 3240 nM.

What about the GI50 [4] of the same compound?
The GI50 was 1780 nM.

And the TGI [4]?
Its TGI is 3200 nM.

And the GI50 [5]?
The GI50 was 1610 nM.

What about the TGI [5] of the same compound?
Its TGI is 2970 nM.

And the GI50 [6]?
The GI50 was 1310 nM.

What about the TGI [6] of the same compound?
Its TGI is 2590 nM.

What about the GI50 [7] of the same compound?
The GI50 was 1720 nM.

And the TGI [7]?
Its TGI is 3110 nM.

And the GI50 [8]?
Its GI50 is 1300 nM.

What about the TGI [8] of the same compound?
The TGI was 2580 nM.

What about the GI50 [9] of the same compound?
The GI50 was 1550 nM.

What about the TGI [9] of the same compound?
Its TGI is 2900 nM.

And the GI50 [10]?
Its GI50 is 1530 nM.

And the TGI [10]?
The TGI was 2870 nM.

What about the GI50 [11] of the same compound?
Its GI50 is 1860 nM.

And the TGI [11]?
Its TGI is 3270 nM.

And the GI50 [12]?
Its GI50 is 1740 nM.

And the TGI [12]?
Its TGI is 3130 nM.

And the GI50 [13]?
Its GI50 is 1720 nM.

And the TGI [13]?
The TGI was 3100 nM.

And the GI50 [14]?
The GI50 was 1690 nM.

What about the TGI [14] of the same compound?
The TGI was 3070 nM.

And the GI50 [15]?
Its GI50 is 1250 nM.

And the TGI [15]?
The TGI was 2520 nM.

What about the GI50 [16] of the same compound?
The GI50 was 1850 nM.

What about the TGI [16] of the same compound?
Its TGI is 3260 nM.

And the GI50 [17]?
The GI50 was 1740 nM.

And the TGI [17]?
Its TGI is 3140 nM.

What about the GI50 [18] of the same compound?
The GI50 was 765 nM.

What about the TGI [18] of the same compound?
The TGI was 2020 nM.

And the GI50 [19]?
The GI50 was 2380 nM.

What about the TGI [19] of the same compound?
Its TGI is 4830 nM.

What about the GI50 [20] of the same compound?
Its GI50 is 1760 nM.

And the TGI [20]?
Its TGI is 3150 nM.

What about the GI50 [21] of the same compound?
The GI50 was 1840 nM.

What about the TGI [21] of the same compound?
Its TGI is 3270 nM.

What about the GI50 [22] of the same compound?
Its GI50 is 1850 nM.

What about the TGI [22] of the same compound?
Its TGI is 3270 nM.

And the GI50 [23]?
The GI50 was 1650 nM.

And the TGI [23]?
The TGI was 3020 nM.

And the GI50 [24]?
Its GI50 is 2020 nM.

And the TGI [24]?
The TGI was 3450 nM.

And the GI50 [25]?
The GI50 was 1650 nM.

What about the TGI [25] of the same compound?
Its TGI is 3020 nM.

What about the GI50 [26] of the same compound?
Its GI50 is 1620 nM.

What about the TGI [26] of the same compound?
The TGI was 2980 nM.

And the GI50 [27]?
Its GI50 is 1810 nM.

And the TGI [27]?
The TGI was 3220 nM.

And the GI50 [28]?
The GI50 was 1830 nM.

And the TGI [28]?
The TGI was 3230 nM.

And the GI50 [29]?
Its GI50 is 1770 nM.

And the TGI [29]?
The TGI was 3170 nM.

And the GI50 [30]?
The GI50 was 1390 nM.

And the TGI [30]?
Its TGI is 2700 nM.

What about the GI50 [31] of the same compound?
Its GI50 is 1840 nM.

And the TGI [31]?
The TGI was 3250 nM.

What about the GI50 [32] of the same compound?
Its GI50 is 1950 nM.

What about the TGI [32] of the same compound?
The TGI was 3370 nM.

And the GI50 [33]?
The GI50 was 1740 nM.

What about the TGI [33] of the same compound?
Its TGI is 3140 nM.

What about the GI50 [34] of the same compound?
Its GI50 is 1740 nM.

What about the TGI [34] of the same compound?
Its TGI is 3130 nM.

What about the GI50 [35] of the same compound?
The GI50 was 1740 nM.

And the TGI [35]?
Its TGI is 3140 nM.

What about the GI50 [36] of the same compound?
The GI50 was 1840 nM.

What about the TGI [36] of the same compound?
The TGI was 3250 nM.

What about the GI50 [37] of the same compound?
Its GI50 is 1840 nM.

What about the TGI [37] of the same compound?
Its TGI is 3260 nM.

And the GI50 [38]?
Its GI50 is 1530 nM.

And the TGI [38]?
The TGI was 2890 nM.

And the GI50 [39]?
The GI50 was 1830 nM.

What about the TGI [39] of the same compound?
Its TGI is 3220 nM.

What about the GI50 [40] of the same compound?
The GI50 was 1770 nM.

What about the TGI [40] of the same compound?
The TGI was 3160 nM.

What about the GI50 [41] of the same compound?
The GI50 was 1810 nM.

What about the TGI [41] of the same compound?
The TGI was 3210 nM.

And the GI50 [42]?
The GI50 was 1780 nM.

And the TGI [42]?
Its TGI is 3170 nM.

And the GI50 [43]?
The GI50 was 1630 nM.

And the TGI [43]?
The TGI was 2990 nM.

And the GI50 [44]?
Its GI50 is 1760 nM.

What about the TGI [44] of the same compound?
Its TGI is 3150 nM.

What about the GI50 [45] of the same compound?
The GI50 was 1640 nM.

What about the TGI [45] of the same compound?
The TGI was 3010 nM.

And the GI50 [46]?
The GI50 was 1750 nM.

What about the TGI [46] of the same compound?
Its TGI is 3140 nM.

What about the GI50 [47] of the same compound?
The GI50 was 736 nM.

What about the TGI [47] of the same compound?
Its TGI is 2030 nM.

And the GI50 [48]?
The GI50 was 1440 nM.

And the TGI [48]?
Its TGI is 2750 nM.

And the GI50 [49]?
Its GI50 is 1590 nM.

And the TGI [49]?
Its TGI is 2930 nM.

What about the GI50 [50] of the same compound?
The GI50 was 1820 nM.

What about the TGI [50] of the same compound?
Its TGI is 3230 nM.

And the GI50 [51]?
Its GI50 is 1110 nM.

And the TGI [51]?
The TGI was 2310 nM.

And the GI50 [52]?
Its GI50 is 1880 nM.

And the TGI [52]?
Its TGI is 3290 nM.

And the GI50 [53]?
The GI50 was 1570 nM.

What about the TGI [53] of the same compound?
The TGI was 2920 nM.

And the GI50 [54]?
The GI50 was 1770 nM.

What about the TGI [54] of the same compound?
Its TGI is 3170 nM.

And the GI50 [55]?
The GI50 was 1570 nM.

What about the TGI [55] of the same compound?
Its TGI is 2930 nM.

What about the GI50 [56] of the same compound?
Its GI50 is 1780 nM.

And the TGI [56]?
The TGI was 3180 nM.

And the GI50 [57]?
The GI50 was 1620 nM.

What about the TGI [57] of the same compound?
Its TGI is 2980 nM.

What about the GI50 [58] of the same compound?
Its GI50 is 1470 nM.

What about the TGI [58] of the same compound?
The TGI was 2800 nM.
